Target: T1, human PDE2A1 (Homo sapiens, UniProt O00408)
T1 construct: GST; purchased BPS Bioscience (San Diego, Calif.) 60020; host or cells: insect cells
Experiment: IMAP FP PDE assay, human PDE2A1
Assay type: biochemical
Details: Lab B; read-out: Human PDE2 Ki (nM) Lab B
Method: Selectivity for PDE2, as compared to other PDE families, was assessed using the IMAP® technology. Human PDE10A2 enzyme was prepared from cytosolic fractions of transiently transfected HEK cells. All other PDE's were GST Tag human enzyme expressed in insect cells and were obtained from BPS Bioscience (San Diego, Calif.): PDE1A (Cat#60010), human PDE2A1 (Cat#60020), PDE3A (Cat#60030), PDE4A1A (Cat#60040), PDE5A1 (Cat#60050), PDE6C (Cat#60060), PDE7A (Cat#60070), PDE8A1 (Cat#60080), PDE9A2 (Cat#60090), PDE11A4 (Cat#60110).
Assays for PDE 1 through 11 were performed in parallel at room temperature in 384-well microtiter plates with an incubation volume of 20.2 μL. Solutions of test compounds were prepared in DMSO and serially diluted with DMSO to yield 30 μL of each of ten solutions differing by 3-fold in concentration, at 32 serial dilutions per plate. […] A Labcyte POD 810 (Labcyte, Sunnyvale, Calif.) was used to dispense 200 nL from each well of the titration plate to make eleven copies of the assay plate for each titration, one copy for each PDE enzyme. A solution of each enzyme (dilution from aliquots, sufficient to produce 20% substrate conversion) and a separate solution of FAM-labeled cAMP or FAM-labeled cGMP from Molecular Devices (Sunnyvale, Calif., product # R7506 or cGMP#R7508), at a final concentration of 50 nM were made in the assay buffer (10 mM Tris HCl, pH 7.2, 10 mM MgCl2, 0.05% NaN3 0.01% Tween-20, and 1 mM DTT). Note that the substrate for PDE2 is 50 nM FAM cAMP containing 1000 nM of cGMP. The enzyme and the substrate were then added to the assay plates in two consecutive additions of 10 μL and then shaken to mix. The reaction was allowed to proceed at room temperature for 60 minutes. A binding solution was then made from the kit components, comprised of 80% Solution A, 20% Solution B and binding reagent at a volume of 1/600 the total binding solution. The enzymatic reaction was stopped by addition of 60 μL of the binding solution to each well of the assay plate. The plates were sealed and shaken for 10 seconds. The plates were incubated at room temperature for one hour, then the parallel and perpendicular fluorescence was measured using a Tecan Genios Pro plate reader (Tecan, Switzerland). The apparent inhibition constants for the compounds against all 11 PDE's was determined from the parallel and perpendicular fluorescent readings as described for PDE10 FP assay using the following apparent KM values for each enzyme and substrate combination: PDE1A (FAM cGMP) 70 nM, human PDE2A1 (FAM cAMP) 10,000 nM, PDE3A (FAM cAMP) 50 nM, PDE4A1A (FAM cAMP) 1500 nM, PDE5A1 (FAM cGMP) 400 nM, PDE6C (FAM cGMP) 700 nM, PDE7A (FAM cAMP) 150 nM, PDE8A1 (FAM cAMP) 50 nM, PDE9A2 (FAM cGMP) 60 nM, PDE10A2 (FAM cAMP) 150 nM, PDE11A4 (FAM cAMP) 1000 nM. The intrinsic PDE2 inhibitory activity of a compound which may be used in accordance with the present invention may be determined by these assays.

T1 sequence (O00408 1-920 isoform O00408-2): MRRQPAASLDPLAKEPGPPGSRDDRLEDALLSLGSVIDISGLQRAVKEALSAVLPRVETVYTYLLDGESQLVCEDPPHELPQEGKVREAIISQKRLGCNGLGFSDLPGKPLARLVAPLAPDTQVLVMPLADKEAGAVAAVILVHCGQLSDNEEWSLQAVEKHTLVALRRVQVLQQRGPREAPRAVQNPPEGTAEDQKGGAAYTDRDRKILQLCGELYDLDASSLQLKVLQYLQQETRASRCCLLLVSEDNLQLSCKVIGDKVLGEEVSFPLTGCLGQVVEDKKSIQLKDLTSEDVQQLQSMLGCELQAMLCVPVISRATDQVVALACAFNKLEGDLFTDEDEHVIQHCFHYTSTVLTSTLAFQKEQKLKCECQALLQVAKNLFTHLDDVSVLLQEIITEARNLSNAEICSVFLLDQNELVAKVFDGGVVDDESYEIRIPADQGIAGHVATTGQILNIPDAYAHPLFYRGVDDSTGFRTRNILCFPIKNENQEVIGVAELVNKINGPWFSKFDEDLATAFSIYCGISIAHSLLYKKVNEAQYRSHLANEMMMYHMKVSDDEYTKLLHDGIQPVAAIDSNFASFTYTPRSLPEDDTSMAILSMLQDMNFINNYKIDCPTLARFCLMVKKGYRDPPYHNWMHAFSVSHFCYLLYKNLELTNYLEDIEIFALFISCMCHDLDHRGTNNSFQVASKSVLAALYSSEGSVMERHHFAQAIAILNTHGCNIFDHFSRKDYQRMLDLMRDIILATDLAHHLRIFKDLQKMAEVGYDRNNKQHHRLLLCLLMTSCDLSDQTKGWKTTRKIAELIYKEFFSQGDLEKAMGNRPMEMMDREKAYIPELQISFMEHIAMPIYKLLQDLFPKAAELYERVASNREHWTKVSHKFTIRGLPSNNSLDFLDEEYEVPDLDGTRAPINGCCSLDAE

SMILES | Ki
Cc1nc2c(c(C(F)F)nn2C(C)c2ccc(SC(F)(F)F)cc2)c(=O)[nH]1 (single isomer, unassigned) [Example 179, (R)- or (S)-3-(Difluoromethyl)-6-methyl-1-(1-(4-(trifluoromethylthio)phenyl)ethyl)-1H-pyrazolo[3,4-d] pyrimidin-4(5H)-one] | 28 nM
Cc1nc2c(c(C(F)F)nn2C(C)c2ccc(C(F)(F)F)nc2)c(=O)[nH]1 (single isomer, unassigned) [Example 194] | 14 nM
Cc1nc2c(c(CO)nn2C(c2ccc(C(F)(F)F)c(F)c2)C2(C)CC2)c(=O)[nH]1 (single isomer, unassigned) [Example 15, (S)- or (R)-1-((3-Fluoro-4-(trifluoromethyl)phenyl)(1-methylcyclopropyl)methyl)-3-(hydroxymethyl)-6-methyl-1H-pyrazolo[3,4-d]pyrimidin-4(5H)-one] | 154 nM
Cc1nc2c(c(CO)nn2C(C)c2ccc3c(c2)OC(F)(F)O3)c(=O)[nH]1 (single isomer, unassigned) [Example 114, (R)- or (S)-1-(1-(2,2-Difluorobenzo[d][1,3]dioxol-5-yl)ethyl)-3-(hydroxymethyl)-6-methyl-1H-pyrazolo[3,4-d]pyrimidin-4(5H)-one] | 1210 nM
Cc1nc2c(c(-c3ccn[nH]3)nn2C(C)c2ccc(C(F)(F)F)cc2)c(=O)[nH]1 (single isomer, unassigned) [Example 235] | 25 nM
Cc1nc2c(c([C@H](C)CO)nn2[C@@H](C)c2ccc(C(F)(F)F)cc2)c(=O)[nH]1 (single isomer, unassigned) [Example 321] | 33 nM
Cc1nc2c(c(CO)nn2C(C)c2ncn(CC(F)(F)F)n2)c(=O)[nH]1 (single isomer, unassigned) [Example 147] | > 2960 nM
Cc1nc2c(c(C(F)F)nn2C(C)c2ccc(OC(F)(F)F)c(F)c2)c(=O)[nH]1 (single isomer, unassigned) [Example 170, (S)- or (R)-3-(Difluoromethyl)-1-(1-(3-fluoro-4-(trifluoromethoxy)phenyl)ethyl)-6-methyl-1H-pyrazolo [3,4-d]pyrimidin-4(5H)-one] | 0.48 nM
Cc1nc2c(c(CO)nn2C2(c3ccc(C(F)(F)F)cc3)CC2)c(=O)[nH]1 [Example 142, 3-(Hydroxymethyl)-6-methyl-1-(1-(4-(trifluoromethyl)phenyl)cyclopropyl)-1H-pyrazolo[3,4-d]pyrimidin-4(5H)-one] | 8.2 nM
Cc1nc2c(c(CO)nn2C(C)c2cnn(CC(F)(F)F)c2)c(=O)[nH]1 (single isomer, unassigned) [Example 149, (R)- or (S)-3-(Hydroxymethyl)-6-methyl-1-(1-(1-(2,2,2-trifluoroethyl)-1H-pyrazol-4-yl)ethyl)-1H-pyrazolo[3,4-d]pyrimidin-4(5H)-one] | > 2960 nM
Cc1nc2c(c(C(F)F)nn2C(C)c2ccc(C(F)(F)F)cc2F)c(=O)[nH]1 (single isomer, unassigned) [Example 186, (S)- or (R)-3-(Difluoro-methyl)-1-(1-(2-fluoro-4-(trifluoromethyl)phenyl)ethyl)-6-methyl-1H-pyrazolo[3,4-d]pyrimidin-4(5H)-one] | 0.63 nM
Cc1nc2c(c(CO)nn2C(C)c2ccc3c(c2)OC(F)(F)O3)c(=O)[nH]1 (single isomer, unassigned) [Example 115, (S)- or (R)-1-(1-(2,2-Difluorobenzo[d][1,3]dioxol-5-yl)ethyl)-3-(hydroxymethyl)-6-methyl-1H-pyrazolo[3,4-d]pyrimidin-4(5H)-one] | 7.2 nM
CC(c1ccc(S(F)(F)(F)(F)F)cc1)n1nc(CO)c2c(=O)[nH]c(C3CC3)nc21 (single isomer, unassigned) [Example 315, (R)- or (S)-6-Cyclopropyl-3-(hydroxymethyl)-1-{1-[4-(pentafluoro-sulfanyl)-phenyl]-ethyl}-1,5-dihydro-4H-pyrazolo[3,4-d]pyrimidin-4-one] | 3.3 nM
CCC(c1ccc(OC(F)(F)F)cc1)n1nc(CO)c2c(=O)[nH]c(C)nc21 (single isomer, unassigned) [Example 134, (R)- or (S)-3-(Hydroxymethyl)-6-methyl-1-(1-(4-(trifluoro-methoxy)phenyl)propyl)-1H-pyrazolo[3,4-d]pyrimidin-4(5H)-one] | 51 nM
CC(c1ccc(C(F)(F)F)cc1)n1nc(CO)c2c(=O)[nH]c(CC3CC3)nc21 (single isomer, unassigned) [Example 310, (S)- or (R)-6-(Cyclopropyl-methyl)-3-(hydroxymethyl)-1-(1-(4-(trifluoromethyl)phenyl)ethyl)-1,5-dihydro-4H-pyrazolo[3,4-d]pyrimidin-4-one] | 11 nM
COc1cccc(Cc2nc3c(c(C#N)nn3C(C)c3ccc(C(F)(F)F)cc3)c(=O)[nH]2)c1 (single isomer, unassigned) [Example 349] | 373 nM
Cc1nc2c(c(C(F)F)nn2C(C)c2ccc(C(F)(F)C(F)(F)F)cc2)c(=O)[nH]1 (stereo not shown) [Example 165, 3-(Difluoromethyl)-6-methyl-1-(1-(4-(perfluoroethyl)phenyl)ethyl)-1H-pyrazolo[3,4-d]pyrimidin-4(5H)-one] | 6.3 nM
Cc1nc2c(c(NS(C)(=O)=O)nn2C(C)c2ccc(C(F)(F)F)cc2)c(=O)[nH]1 (stereo not shown) [Example 261, N-(6-Methyl-4-oxo-1-(1 (4-(trifluoromethyl)phenyl)ethyl)-4,5-dihydro-1H-pyrazolo[3,4-d]pyrimidin-3-yl)methanesulfonamide] | ~1800 nM
CCCc1nc2c(c(CO)nn2C(C)c2ccc(C(F)(F)F)cc2)c(=O)[nH]1 (single isomer, unassigned) [Example 304, (S)- or (R)-3-(Hydroxymethyl)-6-propyl-1-(1-(4-(trifluoromethyl)phenyl)ethyl)-1,5-dihydro-4H-pyrazolo[3,4-d]pyrimidin-4-one] | 263 nM
CC(c1ccc(C(F)(F)F)cc1)n1nc(-c2nnco2)c2c(=O)[nH]c(CC3CC3)nc21 (single isomer, unassigned) [Example 341, (S)- or (R)-6-(Cyclopropylmethyl)-3-(1,3,4-oxadiazol-2-yl)-1-(1-(4-(trifluoromethyl)phenyl)ethyl)-1,5-dihydro-4H-pyrazolo[3,4-d] pyrimidin-4-one] | 191 nM
CC(c1ccc(C(F)(F)F)cc1)n1nc(CO)c2c(=O)[nH]c(CC3CC3)nc21 (single isomer, unassigned) [Example 309, (R)- or (S)-6-(Cyclopropyl-methyl)-3-(hydroxymethyl)-1-(1-(4-(trifluoromethyl)phenyl)ethyl)-1,5-dihydro-4H-pyrazolo[3,4-d]pyrimidin-4-one] | 420 nM
CCC(c1ccc(C(F)(F)F)cc1)n1nc(CO)c2c(=O)[nH]c(C)nc21 (single isomer, unassigned) [Example 133, (S)- or (R)-3-(Hydroxymethyl)-6-methyl-1-(1-(4-(trifluoro-methyl)phenyl)propyl)-1H-pyrazolo[3,4-d]pyrimidin-4(5H)-one] | 66 nM
CCc1nc2c(c(C(F)F)nn2C(C)c2ccc(C(F)(F)F)cc2)c(=O)[nH]1 (single isomer, unassigned) [Example 189, (R)- or (S)-3-(Difluoromethyl)-6-ethyl-1-(1-(4-(trifluoromethyl)phenyl)ethyl)-1,5-dihydro-4H-pyrazolo[3,4-d]pyrimidin-4-one] | 330 nM
Cc1nc2c(c(CC(C)O)nn2C(C)c2ccc(C(F)(F)F)cc2)c(=O)[nH]1 (single isomer, unassigned) [Example 246] | 72 nM
Cc1nc2c(c(C3CCCO3)nn2C(C)c2ccc(C(F)(F)F)cc2)c(=O)[nH]1 (single isomer, unassigned) [Example 72, (S, R)- or (S, S)- or (R, S)- or (R, R)-6-Methyl-3-(-tetrahydrofuran-(trifluoromethyl)phenyl)ethyl)-1H-pyrazolo[3,4-d]pyrimidin-4(5H)-one] | 570 nM
